Measured values as given in patent publication US20250325529A1, “INHIBITORS OF FATTY ACID BINDING PROTEINS (FABPs), METHODS OF USE AND METHODS OF MAKING” (Celloram, inc., priority 2024, published 2025).
Where two headings read alike, the source gives them in different places.

Key:
[1] = Tissue distribution in C57BL/6 male mice; assay type: in vivo, C57BL/6 mice; conditions: oral 10 mg/kg; for PK parameters / concentration at 0.5 h / concentration at 2 h / concentration at 4 h / concentration at 8 h / Kp: mice; for concentration at 0.5 h / concentration at 2 h / concentration at 4 h / concentration at 8 h / Kp: male, C57BL/6, mouse; for Kp: read-out: Tissue/Plasma ratio (Kp)
[2] = tested on: normal human mammary epithelial cells (HMEC); assay: Proliferation assay (Incucyte confluency), HMEC; assay type: cell-based
Procedure: COS-7, MDA-MB-231, and HepG2, were cultured in Dulbecco's modified Eagle's medium (DMEM) supplemented with 10% fetal bovine serum (Invitrogen Life Sciences, Carlsbad, CA). BT-549, OVCAR5 and OVCAR8 cells were cultured in L-Glutamine containing RPMI medium supplemented with 10% fetal calf serum (Invitrogen Life Sciences, Carlsbad, CA). The primary Human Mammary Epithelial Cells (HMEC) were cultured in mammary epithelial cell complete medium (basal medium plus rH-Insulin (5 μg/mL); L-Glutamine (6 mM); Epinephrine (1 μM); Apo-Transferrin (5 μg/mL); rH-TGF-α (0.5 ng/mL); ExtractP (0.4%); Hydrocortisone Hemisuccinate (100 ng/mL)).
2000 cells were plated in each well of 96-well plate. The next day cells were treated with compounds and incubated in Incucyte for 4 days. Images taken every 4 hours for the duration of the time were analyzed to calculate percentage of confluency in response to the treatments. Growth inhibition was calculated as 1—(percentage of viable cells out of untreated cells).

[3] = brain, read-out: Brain concentration
[4] = liver, read-out: Liver concentration
[5] = pancreas, read-out: Pancreas concentration
[6] = plasma, read-out: Plasma concentration
[7] = skeletal muscle, read-out: Skeletal muscle concentration
[8] = white adipose tissue, read-out: Adipose tissue concentration

CC(C)Oc1nc(NC(=O)CSCC(=O)O)c(Cl)cc1Cl [PD152, 2-((2-((3,5-dichloro-6-isopropoxypyridin-2-yl)amino)-2-oxoethyl)thio)acetic acid]
PK parameters ([1]; Adipose tissue): 6655.32 ng·h/g
Detection in the brain (blood-brain barrier crossing) ([1]; C57BL/6 male mice): Only traces
Mean peak adipose tissue concentration ([1]; C57BL/6 male mice): 2109.6 ng/g
Mean peak liver concentration ([1]; C57BL/6 male mice): 3893.5 ng/g
Mean peak pancreas concentration ([1]; C57BL/6 male mice): 215.09 ng/g
Mean peak plasma concentration ([1]; C57BL/6 male mice): 3929.88 ng/mL
Mean peak skeletal muscle concentration ([1]; C57BL/6 male mice): 139.45 ng/g
PK parameters ([1]; Liver): 6704.59 ng·h/g
PK parameters ([1]; Pancreas): 352.54 ng·h/g
PK parameters ([1]; Skeletal Muscle): 270.09 ng·h/g
concentration at 0.5 h [1, 3]: 14.8 ng/g
concentration at 2 h [1, 3]: 0 ng/g
concentration at 4 h [1, 3]: 0 ng/g
concentration at 8 h [1, 3]: 0 ng/g
concentration at 0.5 h [1, 4]: 3890 ng/g
concentration at 2 h [1, 4]: 419 ng/g
concentration at 4 h [1, 4]: 534 ng/g
concentration at 8 h [1, 4]: 238 ng/g
concentration at 0.5 h [1, 5]: 215 ng/g
concentration at 2 h [1, 5]: 28.2 ng/g
concentration at 4 h [1, 5]: 20 ng/g
concentration at 8 h [1, 5]: 14 ng/g
concentration at 0.5 h [1, 6]: 3.93 µg/mL
concentration at 2 h [1, 6]: 0.236 µg/mL
concentration at 4 h [1, 6]: 0.209 µg/mL
concentration at 8 h [1, 6]: 0.149 µg/mL
concentration at 0.5 h [1, 7]: 139 ng/g
concentration at 2 h [1, 7]: 26.5 ng/g
concentration at 4 h [1, 7]: 14 ng/g
concentration at 8 h [1, 7]: 21.1 ng/g
concentration at 0.5 h [1, 8]: 2110 ng/g
concentration at 2 h [1, 8]: 1020 ng/g
concentration at 4 h [1, 8]: 520 ng/g
concentration at 8 h [1, 8]: 596 ng/g
Kp ([1]; Adipose tissue): 1.3
Kp ([1]; Liver): 1.3
Kp ([1]; Pancreas): 0.07
Kp ([1]; Skeletal Muscle): 0.05
Concentrations at which proliferation of HMEC cells was inhibited ([2]; HMEC cells, 4 days): > 125 µM
IC50 ([2]; Homo sapiens, 96 h, HMEC cells, 4 days, read-out: IC50, inhibition of proliferation): 319 µM
Fold lower efficacy in HMEC than in BT-549 cells ([2]; IC50 HMEC vs BT-549): 305 fold
Fold lower efficacy in HMEC than in MB-231 cells ([2]; IC50 HMEC vs MB-231): 532 fold
